Data published in ChEMBL document CHEMBL2440076, “New triarylpyrazoles as broad-spectrum anticancer agents: design, synthesis, and biological evaluation” (Eur J Med Chem, 2013).

Experiments:
Type in all cases: functional
UACC-62 = assay: Growth inhibition of human UACC62 cells assessed as cell growth at 10^-4 M after 48 hrs by sulforhodamine B assay; settings: UACC-62, 48 h, read-out: Activity
MCF7 = assay: Growth inhibition of human MCF7 cells assessed as cell growth at 10^-4 M after 48 hrs by sulforhodamine B assay; settings: MCF7, 48 h, read-out: Activity
IGROV-1 [1] = assay: Growth inhibition of human IGROV1 cells assessed as cell growth at 10^-4 M after 48 hrs by sulforhodamine B assay; settings: IGROV-1, 48 h, read-out: Activity
IGROV-1 [2] = assay: Growth inhibition of human IGROV1 cells assessed as cell growth at 10^-7 M after 48 hrs by sulforhodamine B assay; settings: IGROV-1, 48 h, read-out: Activity
U-251 = assay: Growth inhibition of human U251 cells assessed as cell growth at 10^-5 M after 48 hrs by sulforhodamine B assay; settings: U-251, 48 h, read-out: Activity
SK-MEL-2 = assay: Growth inhibition of human SK-MEL-2 cells assessed as cell growth at 10^-8 M after 48 hrs by sulforhodamine B assay; settings: SK-MEL-2, 48 h, read-out: Activity
OVCAR-4 [3] = assay: Growth inhibition of human OVCAR4 cells assessed as cell growth at 10^-6 M after 48 hrs by sulforhodamine B assay; settings: OVCAR-4, 48 h, read-out: Activity
TK-10 = assay: Growth inhibition of human TK10 cells assessed as cell growth at 10^-7 M after 48 hrs by sulforhodamine B assay; settings: TK-10, 48 h, read-out: Activity
A498 [4] = assay: Growth inhibition of human A498 cells assessed as cell growth at 10^-5 M after 48 hrs by sulforhodamine B assay; settings: A498, 48 h, read-out: Activity
MOLT-4 = assay: Growth inhibition of human MOLT4 cells assessed as cell growth at 10^-5 M after 48 hrs by sulforhodamine B assay; settings: MOLT-4, 48 h, read-out: Activity
CCRF-CEM [5] = assay: Growth inhibition of human CCRF-CEM cells assessed as cell growth at 10^-5 M after 48 hrs by sulforhodamine B assay; settings: read-out: Activity
OVCAR-4 [6] = assay: Growth inhibition of human OVCAR4 cells assessed as cell growth […] after 48 hrs by sulforhodamine B assay; settings: OVCAR-4, 48 h, read-out: Activity
CCRF-CEM [7] = assay: Growth inhibition of human CCRF-CEM cells assessed as cell growth at 10^-7 M after 48 hrs by sulforhodamine B assay; settings: read-out: Activity
SK-OV-3 [8] = assay: Growth inhibition of human SKOV3 cells assessed as cell growth at 10^-4 M after 48 hrs by sulforhodamine B assay; settings: SK-OV-3, 48 h, read-out: Activity
RXF 393 [9] = assay: Growth inhibition of human RXF393 cells assessed as cell growth at 10^-7 M after 48 hrs by sulforhodamine B assay; settings: RXF 393, 48 h, read-out: Activity
SK-OV-3 [10] = assay: Growth inhibition of human SKOV3 cells assessed as cell growth at 10^-5 M after 48 hrs by sulforhodamine B assay; settings: SK-OV-3, 48 h, read-out: Activity
SF-268 = assay: Growth inhibition of human SF268 cells assessed as cell growth at 10^-7 M after 48 hrs by sulforhodamine B assay; settings: SF-268, 48 h, read-out: Activity
MDA-MB-231 = assay: Growth inhibition of human MDA-MB-231 cells assessed as cell growth at 10^-7 M after 48 hrs by sulforhodamine B assay; settings: MDA-MB-231, 48 h, read-out: Activity
MDA-MB-468 = assay: Growth inhibition of human MDA-MB-468 cells assessed as cell growth at 10^-4 M after 48 hrs by sulforhodamine B assay; settings: MDA-MB-468, 48 h, read-out: Activity
SF-539 = assay: Growth inhibition of human SF539 cells assessed as cell growth at 10^-8 M after 48 hrs by sulforhodamine B assay; settings: SF-539, 48 h, read-out: Activity
CAKI-1 [11] = assay: Growth inhibition of human CAKI-1 cells assessed as cell growth at 10^-7 M after 48 hrs by sulforhodamine B assay; settings: CAKI-1, 48 h, read-out: Activity
HT-29 = assay: Growth inhibition of human HT-29 cells assessed as cell growth at 10^-7 M after 48 hrs by sulforhodamine B assay; settings: HT-29, 48 h, read-out: Activity
HL-60(TB) = assay: Growth inhibition of human HL-60(TB) cells assessed as cell growth at 10^-7 M after 48 hrs by sulforhodamine B assay; settings: HL-60, 48 h, read-out: Activity
[12] = Growth inhibition of human Hs 578T cells assessed as cell growth at 10^-7 M after 48 hrs by sulforhodamine B assay; settings: read-out: Activity
DU-145 [13] = assay: Growth inhibition of human DU145 cells assessed as cell growth at 10^-8 M after 48 hrs by sulforhodamine B assay; settings: DU-145, 48 h, read-out: Activity
A498 [14] = assay: Growth inhibition of human A498 cells assessed as cell growth at 10^-7 M after 48 hrs by sulforhodamine B assay; settings: A498, 48 h, read-out: Activity
RXF 393 [15] = assay: Growth inhibition of human RXF393 cells assessed as cell growth at 10^-6 M after 48 hrs by sulforhodamine B assay; settings: RXF 393, 48 h, read-out: Activity
CAKI-1 [16] = assay: Growth inhibition of human CAKI-1 cells assessed as cell growth at 10^-8 M after 48 hrs by sulforhodamine B assay; settings: CAKI-1, 48 h, read-out: Activity
DU-145 [17] = assay: Growth inhibition of human DU145 cells assessed as cell growth at 10^-4 M after 48 hrs by sulforhodamine B assay; settings: DU-145, 48 h, read-out: Activity
M14 = assay: Growth inhibition of human M14 cells assessed as cell growth at 10^-6 M after 48 hrs by sulforhodamine B assay; settings: M14, 48 h, read-out: Activity
UACC-257 = assay: Growth inhibition of human UACC257 cells assessed as cell growth at 10^-6 M after 48 hrs by sulforhodamine B assay; settings: UACC-257, 48 h, read-out: Activity
K562 = assay: Growth inhibition of human K562 cells assessed as cell growth at 10^-4 M after 48 hrs by sulforhodamine B assay; settings: K562, 48 h, read-out: Activity
OVCAR-8 = assay: Growth inhibition of human OVCAR8 cells assessed as cell growth at 10^-7 M after 48 hrs by sulforhodamine B assay; settings: OVCAR-8, 48 h, read-out: Activity
Malme-3M = assay: Growth inhibition of human MALME-3M cells assessed as cell growth at 10^-7 M after 48 hrs by sulforhodamine B assay; settings: read-out: Activity
NCI-H322M = assay: Growth inhibition of human NCI-H322M cells assessed as cell growth at 10^-5 M after 48 hrs by sulforhodamine B assay; settings: read-out: Activity
SK-MEL-28 = assay: Growth inhibition of human SK-MEL-28 cells assessed as cell growth at 10^-4 M after 48 hrs by sulforhodamine B assay; settings: SK-MEL-28, 48 h, read-out: Activity
HCT-15 = assay: Growth inhibition of human HCT15 cells assessed as cell growth at 10^-5 M after 48 hrs by sulforhodamine B assay; settings: HCT-15, 48 h, read-out: Activity
SK-OV-3 [18] = assay: Growth inhibition of human SKOV3 cells assessed as cell growth at 10^-8 M after 48 hrs by sulforhodamine B assay; settings: SK-OV-3, 48 h, read-out: Activity

COc1cc(-c2nn(-c3cccc(NC(=O)c4ccccc4)c3)cc2-c2ccncc2)ccc1Cl
growth at 100 µM (UACC-62): 19%
growth at 100 µM (MCF7): 7%
growth at 100 µM (IGROV-1 [1]): 17%
growth at 0.1 µM (IGROV-1 [2]): 91%
growth at 10 µM (U-251): 17%
growth at 0.01 µM (SK-MEL-2): 93%
growth at 1 µM (OVCAR-4 [3]): 51%
growth at 0.1 µM (TK-10): 97%
growth at 10 µM (A498 [4]): -19%
growth at 10 µM (MOLT-4): 18%
growth at 10 µM (CCRF-CEM [5]): 6%
growth at 100 µM (OVCAR-4 [6]): 30%
growth at 0.1 µM (CCRF-CEM [7]): 101%
growth at 100 µM (SK-OV-3 [8]): 19%
growth at 0.1 µM (RXF 393 [9]): 113%
growth at 10 µM (SK-OV-3 [10]): 31%
growth at 0.1 µM (SF-268): 94%
growth at 0.1 µM (MDA-MB-231): 101%
growth at 100 µM (MDA-MB-468): -27%
growth at 0.01 µM (SF-539): 91%
growth at 0.1 µM (CAKI-1 [11]): 99%
growth at 0.1 µM (HT-29): 98%
growth at 0.1 µM (HL-60(TB)): 100%
growth at 0.1 µM [12]: 97%
growth at 0.01 µM (DU-145 [13]): 104%
growth at 0.1 µM (A498 [14]): 89%
growth at 1 µM (RXF 393 [15]): 35%
growth at 0.01 µM (CAKI-1 [16]): 94%
growth at 100 µM (DU-145 [17]): -5%
growth at 1 µM (M14): 37%
growth at 1 µM (UACC-257): 47%
growth at 100 µM (K562): 11%
growth at 0.1 µM (OVCAR-8): 105%
growth at 0.1 µM (Malme-3M): 82%
growth at 10 µM (NCI-H322M): 36%
growth at 100 µM (SK-MEL-28): 26%
growth at 10 µM (HCT-15): 17%
growth at 0.01 µM (SK-OV-3 [18]): 97%

COc1cc(-c2nn(-c3cccc(NC(=O)c4ccc(N5CCOCC5)c(C(F)(F)F)c4)c3)cc2-c2ccncc2)ccc1Cl
growth at 100 µM (UACC-62): -32%
growth at 100 µM (MCF7): 8%
growth at 100 µM (IGROV-1 [1]): -15%
growth at 0.1 µM (IGROV-1 [2]): 81%
growth at 10 µM (U-251): -17%
growth at 0.01 µM (SK-MEL-2): 111%
growth at 1 µM (OVCAR-4 [3]): 49%
growth at 0.1 µM (TK-10): 106%
growth at 10 µM (A498 [4]): -32%
growth at 10 µM (MOLT-4): 9%
growth at 10 µM (CCRF-CEM [5]): 5%
growth at 100 µM (OVCAR-4 [6]): 18%
growth at 0.1 µM (CCRF-CEM [7]): 73%
growth at 100 µM (SK-OV-3 [8]): -28%
growth at 0.1 µM (RXF 393 [9]): 78%
growth at 10 µM (SK-OV-3 [10]): -11%
growth at 0.1 µM (SF-268): 91%
growth at 0.1 µM (MDA-MB-231): 79%
growth at 100 µM (MDA-MB-468): -53%
growth at 0.01 µM (SF-539): 93%
growth at 0.1 µM (CAKI-1 [11]): 87%
growth at 0.1 µM (HT-29): 106%
growth at 0.1 µM (HL-60(TB)): 73%
growth at 0.1 µM [12]: 81%
growth at 0.01 µM (DU-145 [13]): 108%
growth at 0.1 µM (A498 [14]): 77%
growth at 1 µM (RXF 393 [15]): -16%
growth at 0.01 µM (CAKI-1 [16]): 94%
growth at 100 µM (DU-145 [17]): 2%
growth at 1 µM (M14): 35%
growth at 1 µM (UACC-257): 49%
growth at 100 µM (K562): 3%
growth at 0.1 µM (OVCAR-8): 91%
growth at 0.1 µM (Malme-3M): 52%
growth at 10 µM (NCI-H322M): 26%
growth at 100 µM (SK-MEL-28): 13%
growth at 10 µM (HCT-15): 7%
growth at 0.01 µM (SK-OV-3 [18]): 103%
